Laboratory results from patent US20080319065A1, “Systemic and Intrathecal Effects of a Novel Series of Phospholipase A2 Inhibitors on Hyperalgesia and Spinal Pge2 Release” (The Regents of the University of California, priority 2005, published 2008).

Assays:
GVIA PLA2 = biological target: T1, GVIA PLA2 (Homo sapiens, UniProt O60733); experiment: Time dependence and reversibility of GVIA PLA2 inhibition; type: biochemical
T1 sequence (O60733 1-806): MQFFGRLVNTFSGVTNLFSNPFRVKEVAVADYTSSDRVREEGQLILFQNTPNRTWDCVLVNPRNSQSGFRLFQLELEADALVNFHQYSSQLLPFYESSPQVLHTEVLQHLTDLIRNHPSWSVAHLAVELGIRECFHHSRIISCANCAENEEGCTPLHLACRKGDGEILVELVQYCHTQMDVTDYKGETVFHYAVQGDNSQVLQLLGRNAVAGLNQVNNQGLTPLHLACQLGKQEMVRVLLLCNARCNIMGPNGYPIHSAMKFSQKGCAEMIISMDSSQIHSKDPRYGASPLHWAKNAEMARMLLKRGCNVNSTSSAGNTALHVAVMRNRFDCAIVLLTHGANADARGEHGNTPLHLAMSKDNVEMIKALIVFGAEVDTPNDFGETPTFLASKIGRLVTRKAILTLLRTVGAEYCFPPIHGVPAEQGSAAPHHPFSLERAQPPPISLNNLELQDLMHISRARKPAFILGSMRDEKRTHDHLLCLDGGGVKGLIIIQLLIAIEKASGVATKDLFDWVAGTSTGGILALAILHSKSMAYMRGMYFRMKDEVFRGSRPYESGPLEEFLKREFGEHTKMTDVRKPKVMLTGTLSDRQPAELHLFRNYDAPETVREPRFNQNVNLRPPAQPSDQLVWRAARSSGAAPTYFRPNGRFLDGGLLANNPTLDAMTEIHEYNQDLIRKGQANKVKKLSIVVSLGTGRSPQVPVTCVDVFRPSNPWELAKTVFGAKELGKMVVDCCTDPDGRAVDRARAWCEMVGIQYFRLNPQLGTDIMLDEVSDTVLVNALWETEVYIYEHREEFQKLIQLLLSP
Experimental: GVIA PLA2 (25 ng) was preincubated with either AX010 or AX0073 (5 μM) for 0, 5, 15 or 30 minutes and then assayed in the standard GVIA PLA2 assay mix containing 5 μM inhibitor. The final concentration of the inhibitors in the assay mix was 0.01 mole fraction, and the samples were incubated for 30 minutes at 40° C. […] In the latter respect, 25 ng of GVIA PLA2 was pre-incubated with 10 μM AX010 or AX073 for 10 minutes before diluting the enzyme 1:50 into the standard GVIA PLA2 assay mix lacking inhibitor, and incubating for 30 minutes at 40° C. The final inhibitor concentration in these assays was 0.0004 mole fraction, well below surface concentrations that either AX010 or AX073 inhibit the enzyme.

[1] = test system: murine RAW 264.7 macrophage-like cell line; experiment: Long-term LPS stimulation, PGE2 release; type: cell-based
Experimental: Several 2-oxoamides were tested in the long-term lipopolysaccharide (LPS) stimulation pathway in the murine RAW 264.7 macrophage-like cell line. (Raschke, et al., Cell, 1978, 15, 261-267). This pathway requires GIVA PLA2 activity and results in the extracellular release of many eicosanoid compounds including the prostaglandin PGE2. (Gijon, et al., leukoc. Biol., 1999, 65, 330-336). […] In the low μM range, AX041 and AX073 reduced PGE2 release by roughly 40% (FIG. 1(D)). At 1 μM and 5 μM concentrations, small activations were often seen. The in vitro and cellular results together are consistent with the known roles of GVIA PLA2 given that AX010, a selective GVIA inhibitor, had no cellular effect. […] Inhibitors selective for GIVA PLA2 or dual specificity inhibitors reduce PGE2 levels, also consistent with the known role of GIVA PLA2 in PGE2 production.

[2] = test system: intrathecal SP evoked thermal hyperalgesia; experiment: Intrathecal substance P-induced thermal hyperalgesia; type: in vivo, rat; settings: 3 mg/kg IP, 30 min before IT SP
From the text: Male Holtzman Sprague-Dawley rats (300-350 g; Harlan Industries) were individually housed and maintained on a 12-hr light/dark cycle with free access to food and water. For spinal drug injections, lumbar catheters were implanted in rats under isoflurane anesthesia according to a modification of the procedure described by Yaksh (Yaksh and Rudy, supra, 1976). A polyethylene catheter (PE-5; Spectranetics, 0.014 in OD) was inserted into the intrathecal space and advanced to the rostral edge of the lumbar enlargement through an incision in the atlanto-occipital membrane. Five days after implantation rats were entered into the study. […] A timer was actuated with the light source, and latency was defined as the time required for the paw to show a brisk withdrawal as detected by photodiode motion sensors that stop the timer and terminate the stimulus. Paw withdrawal latencies (PWL) were assessed prior to any treatment (control) and at intervals after treatment. Left (injured) and right (uninjured) paw withdrawal latencies were assessed and plotted versus time. In addition, difference latency scores (uninjured-injured) were calculated and the average withdrawal latency over the post-injection observation intervals are calculated for comparison between treatment groups. […] The mean PWL of the left and right paws was assessed at each time point. […]

GV sPLA2 = biological target: T2, GV sPLA2 (Homo sapiens, UniProt P39877); experiment: GV sPLA2 activity assay; type: biochemical; settings: at 0.091 mole fraction
T2 sequence (P39877 21-138): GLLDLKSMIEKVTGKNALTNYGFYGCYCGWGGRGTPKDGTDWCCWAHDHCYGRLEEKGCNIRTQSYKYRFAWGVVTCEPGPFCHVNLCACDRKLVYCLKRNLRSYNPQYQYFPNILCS

Structure (SMILES) | reversibility of GVIA PLA2 inhibition (GVIA PLA2; pre-incubated with 10 μM for 10 minutes, diluted 1:50, final 0.0004 mole fraction) | time-dependent inhibition of GVIA PLA2 (GVIA PLA2; preincubated 0, 5, 15 or 30 minutes, 5 μM inhibitor, 0.01 mole fraction) | inhibition of PGE2 release, in words [1] | prevention of intrathecal SP-evoked thermal hyperalgesia [2] | efficacy against sPLA2 (GV sPLA2) [%]
CCC(=O)C(=O)NCCCC(=O)OC [AX010] | freely reversible inhibitors | no increased potency with prolonged incubation | did not inhibit PGE2 release |  | 
CCCCCCCCCCCCCCC(=O)C(=O)NCCCC(=O)OCC [AX048, Ethyl 4-[(2-oxohexadecanoyl)amino]butanoate] |  |  |  | completely prevented the spinally-evoked thermal hyperalgesia | 61.5
